Measured values from the supplement of paper PMC10307832.

What was measured:
Test in all cases: relative viability (nuclei count vs DMSO), 5 days (fraction); higher = more cells survive
LCLC-103H = test system: LCLC-103H
Outline: (§1)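 Values are medians from duplicate plates. Each reflects relative viability, defined as the nuclei count of treated wells over that of vehicle wells. Lung cancer cell lines in 1536-well plates were pin-tool dosed one day after seeding with one drug alone or with a fixed anchor-drug dose plus five library-drug doses (not always all listed) in √10 steps, then fixed, stained and imaged at 4× after 5 days.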

NCI-H441 = test system: NCI-H441
Outline: as §1

201T = test system: 201T
Outline: as §1

NCI-H596 = test system: NCI-H596
Outline: as §1

LOU-NH91 = test system: LOU-NH91
Outline: as §1

NCI-H2126 = test system: NCI-H2126
Outline: as §1

NCI-H2023 = test system: NCI-H2023
Outline: as §1

NCI-H522 = test system: NCI-H522
Outline: as §1

HCC-44 = test system: HCC-44
Outline: as §1

NCI-H2087 = test system: NCI-H2087
Outline: as §1

NCI-H2347 = test system: NCI-H2347
Outline: as §1

NCI-H1993 = test system: NCI-H1993
Outline: as §1

NCI-H1395 = test system: NCI-H1395
Outline: as §1

NCI-H23 = test system: NCI-H23
Outline: as §1

NCI-H650 = test system: NCI-H650
Outline: as §1

NCI-H2009 = test system: NCI-H2009
Outline: as §1

HARA = test system: HARA
Outline: as §1

EMC-BAC-2 = test system: EMC-BAC-2
Outline: as §1

NCI-H647 = test system: NCI-H647
Outline: as §1

NCI-H1666 = test system: NCI-H1666
Outline: as §1

NCI-H838 = test system: NCI-H838
Outline: as §1

NCI-H3122 = test system: NCI-H3122
Outline: as §1

BEN = test system: BEN
Outline: as §1

NCI-H727 = test system: NCI-H727
Outline: as §1

## CC(C)Oc1cc(Nc2nc(N[C@@H](C)c3ccc(F)cn3)ncc2Cl)n[nH]1 [AZ23] + Nc1nc2[nH]cc(CCc3ccc(C(=O)N[C@@H](CCC(=O)O)C(=O)O)cc3)c2c(=O)[nH]1 [Pemetrexed] (partner 0.2 µM)
LCLC-103H; first compound 0.01 µM
  relative viability: 0.448
LCLC-103H; first compound 0.03162 µM
  relative viability: 0.433
LCLC-103H; first compound 0.3162 µM
  relative viability: 0.466
NCI-H441; first compound 0.01 µM
  relative viability: 0.262
NCI-H441; first compound 0.03162 µM
  relative viability: 0.242
NCI-H441; first compound 0.3162 µM
  relative viability: 0.267
201T; first compound 0.01 µM
  relative viability: 0.251
201T; first compound 0.03162 µM
  relative viability: 0.348
201T; first compound 0.3162 µM
  relative viability: 0.336
NCI-H596; first compound 0.01 µM
  relative viability: 0.422
NCI-H596; first compound 0.03162 µM
  relative viability: 0.55
NCI-H596; first compound 0.3162 µM
  relative viability: 0.509
LOU-NH91; first compound 0.01 µM
  relative viability: 0.505
LOU-NH91; first compound 0.03162 µM
  relative viability: 0.386
LOU-NH91; first compound 0.3162 µM
  relative viability: 0.394
NCI-H2126; first compound 0.01 µM
  relative viability: 0.62
NCI-H2126; first compound 0.03162 µM
  relative viability: 0.695
NCI-H2126; first compound 0.3162 µM
  relative viability: 0.679
NCI-H2023; first compound 0.03162 µM
  relative viability: 0.268
NCI-H2023; first compound 0.3162 µM
  relative viability: 0.219
NCI-H522; first compound 0.01 µM
  relative viability: 1
NCI-H522; first compound 0.03162 µM
  relative viability: 1
NCI-H522; first compound 0.3162 µM
  relative viability: 1.11
HCC-44; first compound 0.01 µM
  relative viability: 0.373
HCC-44; first compound 0.03162 µM
  relative viability: 0.66
HCC-44; first compound 0.3162 µM
  relative viability: 0.698
NCI-H2087; first compound 0.01 µM
  relative viability: 0.727
NCI-H2087; first compound 0.03162 µM
  relative viability: 0.691
NCI-H2087; first compound 0.3162 µM
  relative viability: 0.766
NCI-H2347; first compound 0.01 µM
  relative viability: 0.379
NCI-H2347; first compound 0.03162 µM
  relative viability: 0.412
NCI-H2347; first compound 0.3162 µM
  relative viability: 0.459
NCI-H1993; first compound 0.01 µM
  relative viability: 0.589
NCI-H1993; first compound 0.03162 µM
  relative viability: 0.564
NCI-H1993; first compound 0.3162 µM
  relative viability: 0.563
NCI-H1395; first compound 0.03162 µM
  relative viability: 0.97
NCI-H1395; first compound 0.3162 µM
  relative viability: 0.929
NCI-H23; first compound 0.03162 µM
  relative viability: 0.77
NCI-H23; first compound 0.3162 µM
  relative viability: 0.992
NCI-H650; first compound 0.01 µM
  relative viability: 0.936
NCI-H650; first compound 0.03162 µM
  relative viability: 0.969
NCI-H650; first compound 0.3162 µM
  relative viability: 0.888
NCI-H2009; first compound 0.01 µM
  relative viability: 1.16
NCI-H2009; first compound 0.03162 µM
  relative viability: 1.1
NCI-H2009; first compound 0.3162 µM
  relative viability: 1.02
HARA; first compound 0.01 µM
  relative viability: 0.147
HARA; first compound 0.03162 µM
  relative viability: 0.309
HARA; first compound 0.3162 µM
  relative viability: 0.281
EMC-BAC-2; first compound 0.01 µM
  relative viability: 0.493
EMC-BAC-2; first compound 0.03162 µM
  relative viability: 0.46
EMC-BAC-2; first compound 0.3162 µM
  relative viability: 0.442
NCI-H647; first compound 0.01 µM
  relative viability: 0.151
NCI-H647; first compound 0.03162 µM
  relative viability: 0.192
NCI-H647; first compound 0.3162 µM
  relative viability: 0.182
NCI-H1666; first compound 0.01 µM
  relative viability: 0.822
NCI-H1666; first compound 0.03162 µM
  relative viability: 0.837
NCI-H1666; first compound 0.3162 µM
  relative viability: 0.771
NCI-H838; first compound 0.01 µM
  relative viability: 0.207
NCI-H838; first compound 0.03162 µM
  relative viability: 0.27
NCI-H838; first compound 0.3162 µM
  relative viability: 0.243
NCI-H3122; first compound 0.01 µM
  relative viability: 0.151
NCI-H3122; first compound 0.03162 µM
  relative viability: 0.199
NCI-H3122; first compound 0.3162 µM
  relative viability: 0.195
BEN; first compound 0.01 µM
  relative viability: 0.634
BEN; first compound 0.03162 µM
  relative viability: 0.892
BEN; first compound 0.3162 µM
  relative viability: 0.732

## CC(C)Oc1cc(Nc2nc(N[C@@H](C)c3ccc(F)cn3)ncc2Cl)n[nH]1 [AZ23] + NC(=O)Nc1cc(-c2cccc(F)c2)sc1C(=O)N[C@H]1CCCNC1 [AZD7762] (partner 0.2 µM)
LCLC-103H; first compound 0.01 µM
  relative viability: 0.875
LCLC-103H; first compound 0.03162 µM
  relative viability: 0.87
LCLC-103H; first compound 0.3162 µM
  relative viability: 0.881
NCI-H441; first compound 0.01 µM
  relative viability: 1.17
NCI-H441; first compound 0.03162 µM
  relative viability: 1.03
NCI-H441; first compound 0.3162 µM
  relative viability: 1.33
201T; first compound 0.01 µM
  relative viability: 0.321
201T; first compound 0.03162 µM
  relative viability: 0.576
201T; first compound 0.3162 µM
  relative viability: 0.743
NCI-H596; first compound 0.01 µM
  relative viability: 1.02
NCI-H596; first compound 0.03162 µM
  relative viability: 1.04
NCI-H596; first compound 0.3162 µM
  relative viability: 1.03
LOU-NH91; first compound 0.01 µM
  relative viability: 0.777
LOU-NH91; first compound 0.03162 µM
  relative viability: 0.853
LOU-NH91; first compound 0.3162 µM
  relative viability: 0.803
NCI-H2126; first compound 0.01 µM
  relative viability: 1.04
NCI-H2126; first compound 0.03162 µM
  relative viability: 1.07
NCI-H2126; first compound 0.3162 µM
  relative viability: 1.07
NCI-H727; first compound 0.01 µM
  relative viability: 0.628
NCI-H727; first compound 0.03162 µM
  relative viability: 0.802
NCI-H727; first compound 0.3162 µM
  relative viability: 0.597
NCI-H522; first compound 0.01 µM
  relative viability: 0.935
NCI-H522; first compound 0.03162 µM
  relative viability: 0.95
NCI-H522; first compound 0.3162 µM
  relative viability: 0.809
HCC-44; first compound 0.01 µM
  relative viability: 1.06
HCC-44; first compound 0.03162 µM
  relative viability: 1.01
HCC-44; first compound 0.3162 µM
  relative viability: 1.04
NCI-H2087; first compound 0.01 µM
  relative viability: 1.6
NCI-H2087; first compound 0.03162 µM
  relative viability: 1.41
NCI-H2087; first compound 0.3162 µM
  relative viability: 1.32
NCI-H2347; first compound 0.01 µM
  relative viability: 0.718
NCI-H2347; first compound 0.03162 µM
  relative viability: 0.818
NCI-H2347; first compound 0.3162 µM
  relative viability: 0.782
NCI-H1993; first compound 0.01 µM
  relative viability: 0.703
NCI-H1993; first compound 0.03162 µM
  relative viability: 0.749
NCI-H1993; first compound 0.3162 µM
  relative viability: 0.965
NCI-H1395; first compound 0.03162 µM
  relative viability: 0.375
NCI-H1395; first compound 0.3162 µM
  relative viability: 0.432
NCI-H23; first compound 0.03162 µM
  relative viability: 0.204
NCI-H23; first compound 0.3162 µM
  relative viability: 0.309
NCI-H650; first compound 0.01 µM
  relative viability: 0.954
NCI-H650; first compound 0.03162 µM
  relative viability: 1.14
NCI-H650; first compound 0.3162 µM
  relative viability: 1.12
HARA; first compound 0.01 µM
  relative viability: 0.252
HARA; first compound 0.03162 µM
  relative viability: 0.485
HARA; first compound 0.3162 µM
  relative viability: 0.534
EMC-BAC-2; first compound 0.01 µM
  relative viability: 0.983
EMC-BAC-2; first compound 0.03162 µM
  relative viability: 1.21
EMC-BAC-2; first compound 0.3162 µM
  relative viability: 1.03
NCI-H647; first compound 0.01 µM
  relative viability: 0.296
NCI-H647; first compound 0.03162 µM
  relative viability: 0.615
NCI-H647; first compound 0.3162 µM
  relative viability: 0.806
NCI-H1666; first compound 0.01 µM
  relative viability: 0.91
NCI-H1666; first compound 0.03162 µM
  relative viability: 0.772
NCI-H1666; first compound 0.3162 µM
  relative viability: 0.977
NCI-H838; first compound 0.01 µM
  relative viability: 0.934
NCI-H838; first compound 0.03162 µM
  relative viability: 1.05
NCI-H838; first compound 0.3162 µM
  relative viability: 0.991
NCI-H3122; first compound 0.01 µM
  relative viability: 1.22
NCI-H3122; first compound 0.03162 µM
  relative viability: 1.03
NCI-H3122; first compound 0.3162 µM
  relative viability: 1.02
BEN; first compound 0.01 µM
  relative viability: 0.659
BEN; first compound 0.03162 µM
  relative viability: 0.759
BEN; first compound 0.3162 µM
  relative viability: 0.746
